In patent US20090232757A1, “Use of gamma-amino butyric acid as a depigmenting agent” (priority 2006, published 2009):
Where “and” joins values, the source holds several entries; their conditions need not be identical. Equal entries are not always repeated. Where two headings read alike, the source gives them in different places. Marks after values point to notes of the source that are not given here.

What was measured:
[1] = test system: normal human melanocytes; conditions: for Dose from which a cytotoxic effect is detected (less than 80% of the viable cells still present) / Percentage of viability (vs controls), Mean: human, 72 h
Protocol: The determination is performed with normal human melanocytes obtained from a young patient. For the performance of the tests, the cells have been cultured until obtention of confluent mono-layers.
As a comparison one has prepared a 10% solution of kojic acid and a 30% solution of lactic acid (composition E).
The tested preparations have been then directly diluted in the incubation medium for the melanocytes.
At the end of the incubation period, the viability of the cells has been evaluated using a spectrophotometric method for dosing the activity of the intracellular phosphatases. According to the method of Yan T. et al. (Anal. Biochem. 24 (1996) 103-108), one doses the p-nitrophenol resulting from the conversion of the phosphate of p-nitrophenol by means of the intracellular phophatases of the viable cells present in the wall of culture.

[2] = test system: normal human melanocytes; experiment: Melanomodulating effect: intracellular melanine/proteins ratio in normal human melanocytes in monolayer culture (72 h); assay type: cell-based
Excerpt: The search of a “melanomodulating” effect has been performed in two steps: • melanomodulating effect of the active ingredients taken separately at predetermined concentrations in the cytotoxicity tests. • Melanomodulating effect of the complex, i.e. GABA in admixture with the other ingredients, white mulberry, lemon and lactic acid.
These tests have been performed on a model of normal human melanocytes cultured on monolayer cultures.
Gamma aminobutyric acid, lemon extract and white mulberry extract have been solubilized and directly diluted in the culture medium.
In this method the ratio melanine/proteins is determined as a percentage of the controls.
The effect of a complex containing the active ingredients A (gamma aminobutyric acid), C, D and lactic acid (composition E) has also been evaluated as a comparating element, on the synthesis of melanine in a model of normal human melanocytes cultured in a monolayer culture.
The tested compositions have therafter been directly diluted in the incubation medium for the melanocytes at a concentration of 0.1, 0.5 and 1% (v/v).
Normal human melanocytes have been utilized stemming from a young patient. They have been cultured in a monolayer culture until of a confluence of 80%.
1—Dosage of Melanine: • at the end of the incubation period, the intra cellular content of melanine has been quantified after cellular lysis, using a spectrophotometric measure at 405 nm.
2—Dosage of the Proteins: • at the end of incubation period the proteins contained in the cellular lysates have been determined using a spectrocolometric method based on Coomassie Blue according to the method of Bradford M. (Anal. Biochem. 72 (1976) 248-254).

[3] = target: T1, tyrosinase (Homo sapiens, UniProt P14679); experiment: Inhibiting activity on tyrosinase in cultures of normal human melanocytes; assay type: cell-based
T1 construct: cultures of normal human melanocytes; endogenous in cells; host or cells: normal human melanocytes
T1 sequence (P14679 19-529): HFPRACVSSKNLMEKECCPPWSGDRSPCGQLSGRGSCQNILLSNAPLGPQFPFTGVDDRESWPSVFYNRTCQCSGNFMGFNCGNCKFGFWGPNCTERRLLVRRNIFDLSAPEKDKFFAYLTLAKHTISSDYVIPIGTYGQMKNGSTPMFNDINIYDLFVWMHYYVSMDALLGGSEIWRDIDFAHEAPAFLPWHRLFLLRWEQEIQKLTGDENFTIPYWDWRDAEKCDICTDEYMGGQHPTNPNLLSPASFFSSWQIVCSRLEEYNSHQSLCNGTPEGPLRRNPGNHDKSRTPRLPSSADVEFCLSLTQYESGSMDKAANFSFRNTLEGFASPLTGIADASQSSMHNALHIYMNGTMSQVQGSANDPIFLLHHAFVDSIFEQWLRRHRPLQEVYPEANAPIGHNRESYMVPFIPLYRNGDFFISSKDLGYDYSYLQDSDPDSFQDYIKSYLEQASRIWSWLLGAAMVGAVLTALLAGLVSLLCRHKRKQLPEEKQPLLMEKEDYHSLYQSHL
Excerpt: Gamma aminobutyric acid as well as its salts and derivatives used in such compositions has been studied on isolated cells and namely on cultures of normal human melanocytes. […] The obtained results are a function of the doses what is in favour of a specific effect of gamma-aminobutyric acid on this kind of parameters.

NCCCC(=O)O [A, gamma aminobutyric acid]
Dose from which a cytotoxic effect is detected (less than 80% of the viable cells still present) [1]: 0.5%
Concentration from which results on ratio melanine/proteins are statistically significant ([2]; Step 1, 72 h): 0.1%
Ratio Melanine Proteins (% of the controls), Mean ([2]; Step 1, A 0.001% (w/v), 72 h, mean): 101.9 % of the controls
Ratio Melanine Proteins (% of the controls) ([2]; Step 1, A 0.001% (w/v), 72 h, single values): 98.8 % of the controls and 108.6 % of the controls and 98.3 % of the controls
Ratio Melanine Proteins (% of the controls), Mean ([2]; Step 1, A 0.01% (w/v), 72 h, mean): 96.6 % of the controls
Ratio Melanine Proteins (% of the controls) ([2]; Step 1, A 0.01% (w/v), 72 h, single values): 87.0 % of the controls and 101.8 % of the controls and 101.1 % of the controls
Ratio Melanine Proteins (% of the controls), Mean ([2]; Step 1, A 0.1% (w/v), 72 h, mean): 74.0* % of the controls
Ratio Melanine Proteins (% of the controls) ([2]; Step 1, A 0.1% (w/v), 72 h, single values): 74.3 % of the controls and 76.4 % of the controls and 74.2 % of the controls and 71.3 % of the controls
Intra cellular content of melanine in the cultured cells, result in words ([2]; cultured normal human melanocytes): clear decrease
Inhibiting activity on tyrosinase, result in words [3]: inhibiting activity on tyrosinase

CC(O)C(=O)O (stereo not shown) [E, lactic acid]
Cytotoxicity, result in words [1]: clearly cytotoxic
Dose from which a cytotoxic effect is detected (less than 80% of the viable cells still present) [1]: 0.03%
Percentage of viability (vs controls), Mean ([1]; 0.003 % (v/v)): 80.8%
Percentage of viability (vs controls), Mean ([1]; 0.03 % (v/v)): 73.2%
Percentage of viability (vs controls), Mean ([1]; 0.075 % (v/v)): 70.8%
Percentage of viability (vs controls), Mean ([1]; 0.15 % (v/v)): 65.9%
Percentage of viability (vs controls), Mean ([1]; 0.3 % (v/v)): 6.2%
Percentage of viability (vs controls), Mean ([1]; 0.75 % (v/v)): 2.4%
Percentage of viability (vs controls), Mean ([1]; 1.5 % (v/v)): 0.2%
Percentage of viability (vs controls), Mean ([1]; 3 % (v/v)): 0.8%

O=c1cc(CO)occ1O [Kojic Acid, Kojic acid]
Ratio melanine/Proteins (% of the controls), Mean ([2]; Step 1, Kojic Acid 250 μM in DMSO, 72 h, mean): 77.40* % of the controls
% of the controls (mean ratio melanine/proteins, controls = 100) ([2]; Step 2, Kojic Acid 250 μM, 72 h): 84.5 % of the controls
Ratio melanine/Proteins (% of the controls), Mean ([2]; Step 2, Kojic Acid 250 μM, 72 h, mean (controls mean 119.2)): 100.8* % of the controls
Ratio melanine/Proteins (% of the controls) ([2]; Step 2, Kojic Acid 250 μM, 72 h, single values): 106.3 % of the controls and 93.2 % of the controls and 102.8 % of the controls and 94.1 % of the controls and 97.9 % of the controls
Decrease of the intra cellular content of melanine in the culture cells ([2]; Step 2, Kojic acid at 250 μM, 72 h, p<0.05): 15.5%
